Test results published in patent US10112928B2, “Inhibitors of SYK” (Hoffmann-La Roche Inc., priority 2012, dated 2018).
Read-outs that look alike come from different tables or passages of the source.

Key:
[1] = molecular target: recombinant human SYK360-635 (Spleen Tyrosine Kinase) (Homo sapiens (Human), UniProt P43405); experiment: SYK kinase assay (33P ATP incorporation into biotinylated peptide); type: biochemical; details: purified truncated SYK aa 360-635, 20 μM ATP; read-out: Syk_IC50
Protocol: Determination of IC50 of Spleen Tyrosine Kinase (SYK) Inhibition:
SYK kinase assay is a standard kinase assay adapted to a 96 well plate format. This assay is performed in 96-well format for IC50 determination with […] which represented 10 half log dilutions and a 40 μL reaction volume. The assay measures the incorporation of radiolabeled ^33P γATP into an N-terminally biotinylated peptide substrate, derived from naturally occurring phosphoacceptor consensus sequence (Biotin-11aa DY*E). Phosphorylated products were detected upon termination of reactions with EDTA and the addition of Streptavidin coated beads.
final concentration: 50 mM HEPES pH7.5
BSA: Bovine Serum Albumin Fraction V, fatty acid free (Roche Diagnostics GmbH, Cat. No. 9100221) diluted to a final concentration of 0.1%
Assay Dilution Buffer (ADB): 50 mM HEPES, 0.1 mM EGTA, 0.1 mM Na Vanadate, 0.1 mM β-glycerophosphate, 10 mM MgCl2, 1 mM DTT, 0.1% BSA, pH 7.5
Bead wash buffer: 10 g/L PBS (Phosphate buffered saline) with 2M NaCl+1% phosphoric acid.
DMSO and the mixture was incubated for 10 min at RT.
The kinase reaction was initiated by the addition of 10 μL 4× substrate cocktail containing the DYE peptide substrate [0 or 5 μM], ATP [20 μM] and ^33PγATP [2 μCi/rxn]. After incubation at 30° C. for 15 min, the reaction was terminated by the transfer of […] pf the reaction sample to a 96 well 0.65 μm Millipore MADVNOB membrane/plate containing 200 μL 5 mM EDTA and 20% Streptavidine coated beads in PBS.
The unbound radionucleotides were washed under vacuum with 3×250 μL 2M NaCl; 2×250 μL 2M NaCl+1% phosphoric acid; 1×250 μL H2O. After the last wash membrane/plates were transferred to an adaptor plate, heat dried for 15 min at 60° C., and 50 μL scintillation cocktail was added to each well and 4 h later the amount of radioactivity was counted in a top counter.

[2] = system: CD69 up-regulation on B-cell lymphocytes (CD20+) stimulated with anti-human IgM; experiment: B Cell CD69 Up-Regulation Assay in Human Whole Blood; type: cell-based; details: read-out: Human whole blood IC50
Protocol: B Cell CD69 Up-Regulation Assay in Human Whole Blood
Human Blood was collected from healthy volunteers into Vacutainers (BD Biosciences, San Jose, Calif.) containing sodium heparin. Test compound was suspended in DMSO and nine half-log serial dilutions were made. The concentration of […] in the assay was 0.5%. 100 μL whole blood was pre-incubated with compound for 30 min and then stimulated with goat F(ab′)2 anti-human IgM (50 μg/mL, Southern Biotech) for 20 h. At the end of the 20 hour incubation, samples were incubated with fluorochrome-conjugated antibodies, PE mouse anti-human CD20 and APC Mouse anti-human CD69 (BD Biosciences), for 30 minutes. Samples were then lysed with Lyse solution (BD) and washed with PBS containing 2% fetal bovine serum (FBS). Fluorescent signals were acquired on flow cytometer LSR II (BD) and data were analyzed by Flow Jo. The percentage of activated (CD69hi) B-cell lymphocytes (CD20+) were determined using un-stimulated (negative control) and stimulated (positive control) wells as reference guidelines. The percentage inhibition was calculated and an IC50 curve was constructed using GraphPad Prism software with sigmoidal curve fitting.

[3] = human whole blood, anti-IgM stimulation 20 h, CD69hi CD20+ B cells

| IC50 [1] [nM] | IC50 [2, 3] [nM] | Compound | IC50 ([2]; Homo sapiens, 20 h) [nM] |
| --- | --- | --- | --- |
| 12.4 | 566 | CC(C)Oc1cccc(Nc2cc(NCCN)nnc2C(N)=O)n1 [Compound I-33, 6-(2-aminoethylamino)-4-(6-isopropoxypyridin-2-ylamino)pyridazine-3-carboxamide] |  |
| 135 | 6020 | CC(C)(C)c1cccc(Nc2cc(NCC3(N)CC3)nnc2C(N)=O)n1 [Compound I-19, 6-((1-aminocyclopropyl)methylamino)-4-(6-tert-butylpyridin-2-ylamino)pyridazine-3-carboxamide] |  |
| 3980 | > 5000 | Cc1cc(C)nc(Nc2cc(NCCN)nnc2C(N)=O)n1 [Compound I-24, 6-(2-aminoethylamino)-4-(4,6-dimethylpyrimidin-2-ylamino)pyridazine-3-carboxamide] |  |
|  | 573 | CC(C)(C#N)c1cccc(Nc2cc(NCCN)nnc2C(N)=O)n1 [Compound I-21, 6-(2-aminoethylamino)-4-(6-(2-cyanopropan-2-yl)pyridin-2-ylamino)pyridazine-3-carboxamide] |  |
| 41.8 | 548 | Cc1cccc(Nc2cc(N[C@@H]3CCCC[C@@H]3N)ccc2C(N)=O)n1 [Compound I-30, 4-((1R,2S)-2-amino-cyclohexylamino)-2-(6-methyl-pyridin-2-ylamino)-benzamide] |  |
| 13 | 603 | CC(C)(C)c1cccc(Nc2cc(NCCN)nnc2C(N)=O)n1 [Compound I-16, 6-(2-aminoethylamino)-4-(6-tert-butylpyridin-2-ylamino)pyridazine-3-carboxamide] |  |
| 9.25 | 1500 | COc1nc(Nc2cc(NCCN)nnc2C(N)=O)ccc1C(C)C [Compound I-31, 6-(2-aminoethylamino)-4-(5-isopropyl-6-methoxypyridin-2-ylamino)pyridazine-3-carboxamide] |  |
|  | 358 | CC(C)(C)c1nccc(Nc2cc(NCCN)nnc2C(N)=O)n1 [Compound I-28, 6-(2-aminoethylamino)-4-(2-tert-butylpyrimidin-4-ylamino)pyridazine-3-carboxamide] |  |
|  | 287 | Cc1ccc(Nc2cc(NCCN)nnc2C(N)=O)nc1N(C)C [Compound I-27, 6-(2-aminoethylamino)-4-(6-(dimethylamino)-5-methylpyridin-2-ylamino)pyridazine-3-carboxamide] |  |
|  | 2060 | CC(C)(O)c1cccc(Nc2cc(NCCN)nnc2C(N)=O)n1 [Compound I-23, 6-(2-aminoethylamino)-4-(6-(2-hydroxypropan-2-yl)pyridin-2-ylamino)pyridazine-3-carboxamide] |  |
|  | 52 | NCCNc1cc(Nc2cccc(C(F)(F)F)n2)c(C(N)=O)nn1 [Compound I-25, 6-(2-aminoethylamino)-4-(6-(trifluoromethyl)pyridin-2-ylamino)pyridazine-3-carboxamide] |  |
|  | 1800 | COC(C)(C)c1cccc(Nc2cc(NCCN)nnc2C(N)=O)n1 [Compound I-29, 6-(2-aminoethylamino)-4-(6-(2-methoxypropan-2-yl)pyridin-2-ylamino)pyridazine-3-carboxamide] |  |

Second part, the compound before the results:

| Compound | IC50 [1] [nM] | IC50 [2, 3] [nM] | IC50 ([2]; Homo sapiens, 20 h) [nM] |
| --- | --- | --- | --- |
| Cc1cccc(Nc2cc(Oc3ccccc3C#N)nnc2C(N)=O)n1 [Compound I-6, 6-(2-cyanophenoxy)-4-(6-methylpyridin-2-ylamino)pyridazine-3-carboxamide] | 385 |  |  |
| Cc1ccc(Nc2cc(OCCN)nnc2C(N)=O)nc1C [Compound I-13, 6-(2-aminoethoxy)-4-(5,6-dimethylpyridin-2-ylamino)pyridazine-3-carboxamide] |  | > 50000 |  |
| Cc1cc(C)cc(Nc2cc(Cl)nnc2C(N)=O)c1 [Compound I-14, 6-chloro-4-(3,5-dimethylphenylamino)pyridazine-3-carboxamide] | 124 | > 50000 |  |
| Cc1cccc(Nc2cc(Oc3ccc(Cl)cc3C#N)nnc2C(N)=O)n1 [Compound I-9, 6-(4-chloro-2-cyanophenoxy)-4-(6-methylpyridin-2-ylamino)pyridazine-3-carboxamide] | 1410 |  |  |
| Cc1cccc(Nc2cc(Oc3cccnc3)nnc2C(N)=O)n1 [Compound I-5, 4-(6-methylpyridin-2-ylamino)-6-(pyridin-3-yloxy)pyridazine-3-carboxamide] | 1500 |  |  |
| Cc1cccc(Nc2cc(Oc3ccccc3C3CC3)nnc2C(N)=O)n1 [Compound I-10, 6-(2-cyclopropylphenoxy)-4-(6-methylpyridin-2-ylamino)pyridazine-3-carboxamide] | 2180 |  |  |
| Cc1cccc(Nc2cc(Oc3cccc(C#N)c3)nnc2C(N)=O)n1 [Compound I-2, 6-(3-cyanophenoxy)-4-(6-methylpyridin-2-ylamino)pyridazine-3-carboxamide] | 965 |  |  |
| Cc1cccc(Nc2cc(Oc3cccc(C(C)(C)N)c3)nnc2C(N)=O)n1 [Compound I-3, 6-(3-(2-aminopropan-2-yl)phenoxy)-4-(6-methylpyridin-2-ylamino)pyridazine-3-carboxamide] | 2240 |  |  |
| Cc1cccc(Nc2cc(Oc3ccccc3C)nnc2C(N)=O)n1 [Compound I-8, 4-(6-methylpyridin-2-ylamino)-6-(o-tolyloxy)pyridazine-3-carboxamide] | 373 |  | > 5000 |
| Cc1cccc(Nc2cc(Oc3ccccc3)nnc2C(N)=O)n1 [Compound I-1, 4-(6-methylpyridin-2-ylamino)-6-phenoxypyridazine-3-carboxamide] | 1320 |  |  |
| Cc1ccc(Nc2cc(NC(CN)CC(C)C)nnc2C(N)=O)nc1C(C)C (stereo not shown) [Compound I-15, 6-(1-aminomethyl-3-methyl-butylamino)-4-(6-isopropyl-5-methyl-pyridin-2-ylamino)-pyridazine-3-carboxylic acid amide] | 2 | 931 |  |
| NC(=O)c1n[nH]c(=O)cc1Nc1cccc(C2CC2)n1 [Compound I-11, 4-(6-cyclopropyl-pyridin-2-ylamino)-6-oxo-1,6-dihydro-pyridazine-3-carboxylic acid amide] | 225 | > 5000 |  |
| Cc1cccc(Nc2nc(CCCN)ncc2C(N)=O)c1 [Compound I-22, 2-(3-amino-propyl)-4-m-tolylamino-pyrimidine-5-carboxylic acid amide] | 2540 | > 5000 |  |
| CCc1ccccc1Oc1cc(Nc2cccc(C)n2)c(C(N)=O)nn1 [Compound I-7, 6-(2-ethylphenoxy)-4-(6-methylpyridin-2-ylamino)pyridazine-3-carboxamide] | 473 |  |  |
